The test system of one experiment is hot plate. The following applies: cited from earlier work.
For the next experiment, the system named is tail flick. The following applies: intravenous delivery (Mechoulam et al.); cited from earlier work.
For experiment [1], the target named is T1, mutant MGL (mut-MGLL 11-313 L179S L186S) (Homo sapiens, UniProt Q99685, L169S/L176S).
T1 construct: purified mutant MGL (mut-MGLL 11-313 L179S L186S)
T1 sequence (Q99685 1-303 L169S/L176S): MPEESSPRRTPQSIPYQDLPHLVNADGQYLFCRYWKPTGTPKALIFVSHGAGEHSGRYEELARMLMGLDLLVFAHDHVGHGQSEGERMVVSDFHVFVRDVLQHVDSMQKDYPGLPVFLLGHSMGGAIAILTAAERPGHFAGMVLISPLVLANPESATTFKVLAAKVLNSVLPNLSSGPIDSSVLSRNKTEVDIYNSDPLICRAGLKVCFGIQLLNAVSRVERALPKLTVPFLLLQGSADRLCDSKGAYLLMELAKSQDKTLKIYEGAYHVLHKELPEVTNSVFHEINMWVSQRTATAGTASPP
As to the kind of experiment: MGL Enzyme Activity Assay, purified mutant MGL, 4MU-B substrate. In kind it is biochemical. The following applies: mutant MGL 5 nM, 4MU-B 10 μM, 37° C.; read-out: MGL mutant inh IC50. The procedure, abridged: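 Purified mutant MGL (5 nM final) with 10 μM 4MU-B in 20 mM PIPES pH 7.0, 150 mM NaCl, 0.001% Tween 20; compounds 17 to 0.0003 μM final. Fluorescence (ex 335/em 440 nm) followed 5 min at 37 °C; IC50 from fit of fractional activity versus inhibitor concentration.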

Experiment [2] concerns CFA-Induced Paw Radiant Heat Hypersensitivity. In words: CFA-Induced Paw Radiant Heat Hypersensitivity. In kind it is in vivo. The following applies: rat, HPβCD; for inhibition in vivo at 10 mg/kg / inhibition in vivo at 30 mg/kg: po, 5 h, group mean values, read-out: Method 1: peak % reversal; for Method 2: peak % reversal: individual animal values. The method, then: Each rat was placed in a test chamber on a warm glass surface and allowed to acclimate for approximately 10 min. A radiant thermal stimulus (beam of light) was focused through the glass onto the plantar surface of each hind paw in turn. The thermal stimulus was automatically shut off by a photoelectric relay when the paw was moved or when the cut-off time was reached (20 sec for radiant heat at ˜5 amps). An initial (baseline) response latency to the thermal stimulus was recorded for each animal prior to the injection of complete Freund's adjuvant (CFA). Twenty-four hours following intraplantar CFA injection, the response latency of the animal to the thermal stimulus was re-evaluated and compared to the animal's baseline response time. […] Immediately following the post-CFA latency assessment, the indicated test compound or vehicle was administered orally. Post-compound treatment withdrawal latencies were assessed at fixed time intervals, typically 30, 60, 120, 180, and 300 min.
The percent reversal (% R) of hypersensitivity was calculated in one of two different ways:
1) using group mean values or 2) using individual animal values. More specifically:
Method 1. For all compounds, the % R of hypersensitivity was calculated using the mean value for groups of animals at each time point according to the following formula: % reversal=[(group treatment response−group CFA response)/(group baseline response−group CFA response)]×100 Results were given for the maximum % reversal observed for each compound at any time point tested.
Method 2. For some compounds, the % R of hypersensitivity was calculated separately for each animal according to the following formula: % reversal=[(individual treatment response−individual CFA response)/(individual baseline response−individual CFA response)]×100.
Results are given as a mean of the maximum % reversal values calculated for each individual animal.

For a further experiment, the target named is T2, mutant MGL (Homo sapiens, UniProt Q99685, L169S/L176S).
T2 construct: purified mutant MGL (mut-MGLL 11-313 L179S L186S)
T2 sequence (Q99685 1-303 L169S/L176S): T1 sequence (Q99685 1-303 L169S/L176S)
As to the kind of experiment: MGL ThermoFluor Assay - Mutant. In kind it is binding. The settings on record: 0.07 mg/ml mutant MGL, 100 μM ANS, pH 7.0. The procedure, abridged:
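Thermal-shift binding with 0.07 mg/ml L169S/L176S mutant MGL, 100 μM 1,8-ANS, 200 mM NaCl, 0.001% Tween-20, 50 mM PIPES pH 7.0, heated 40–90 °C at 1 °C/min.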

For another experiment, the target named is T3, MGL (Rattus norvegicus, UniProt Q8R431).
T3 construct: one g rat brain was homogenized using a Polytron homogenizer; from tissue; host or cells: rat brain homogenate
T3 sequence (Q8R431 1-303): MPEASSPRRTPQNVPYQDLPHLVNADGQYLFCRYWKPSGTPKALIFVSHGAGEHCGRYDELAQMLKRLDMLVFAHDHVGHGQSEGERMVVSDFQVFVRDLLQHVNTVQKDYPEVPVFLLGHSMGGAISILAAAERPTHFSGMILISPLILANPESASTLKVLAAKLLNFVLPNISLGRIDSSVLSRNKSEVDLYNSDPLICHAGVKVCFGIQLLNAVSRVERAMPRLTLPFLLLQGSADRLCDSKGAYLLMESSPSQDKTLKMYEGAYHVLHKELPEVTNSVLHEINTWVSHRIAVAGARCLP
In words: 2-AG Accumulation Assay in rat brain homogenate. In kind it is biochemical. The settings on record: percent of vehicle; for activity at 1 µM: compound @1 µM, read-out: Rat Brain 2AG % VehCntrl (%) @1 µM; for activity at 10 µM: compound @10 µM, read-out: Rat Brain 2AG % VehCntrl (%) @10 µM.

Experiment [3] addresses T4, wild type MGL (wt-MGLL 6H-11-313) (Homo sapiens, UniProt Q99685).
T4 construct: purified wild type MGL (wt-MGLL 6H-11-313); 6H (hexahistidine) (N)
T4 sequence (Q99685 1-303): T1 sequence (Q99685 1-303 L169S/L176S) with S169L, S176L
As to the kind of experiment: MGL Enzyme Activity Assay, purified wild type MGL, 4MU-B substrate. In kind it is biochemical. The following applies: wild type MGL 5 nM, 4MU-B 10 μM, 37° C.; read-out: MGL wild type inh IC50. The method, then:
All rate-based assays were performed in black 384-well polypropylene PCR microplates (Abgene) in a total volume of 30 μL. […] Final compound concentrations ranged from 17 to 0.0003 μM.
The IC50 values for the following compounds were determined using Microsoft Office Excel from a fit of the equation to the concentration-response plot of the fractional activity as a function of inhibitor concentration.

The subject of experiment [4] is murine model of acute inflammation. The settings on record: murine model of acute inflammation (Comelli et al.); cited from earlier work.
Where [5] appears, read: 10 mg/kg p.o., last time point 300 min.
[6] abbreviates: 30 mg/kg p.o., last time point 300 min (180 min for Cpd 17, 77).

Residue numbers refer to the chain shown, from its start. A value given as a limit tells only on which side of the number the result lay.

These results are taken from US8759333B2, “Di-azetidinyl diamide as monoacylglycerol lipase inhibitors” (Janssen Pharmaceutica, NV, priority 2010, dated 2014).

Regarding `CCCCC/C=C\C/C=C\C/C=C\C/C=C\CCCC(=O)OC(CO)CO` [2-AG, 2-arachidinoylglycerol], in the experiment on hot plate (2-AG given alone (Ben-Shabat et al.)), the “analgesia in hot plate assay, given alone” value is on record as “not analgesic”. The “analgesia in hot plate assay” value in the experiment with hot plate (intravenous delivery (Lichtman et al.)) was “produces analgesia”. Moreover, the “analgesia in tail flick assay” value in the experiment on tail flick was “produces analgesia”.

As to `O=C(c1ccc(-c2ccc(C(F)(F)F)s2)cc1)N1CC(N2CC(N3Cc4ccccc4C3=O)C2)C1` [Cpd 76, 2-[1′-({4-[5-(Trifluoromethyl)thiophen-2-yl]phenyl}carbonyl)-1,3′-biazetidin-3-yl]-2,3-dihydro-1H-isoindol-1-one], the IC50 in experiment [1] turned out to be 15 nM. Moreover, in experiment [2] (setting [5]), the inhibition in vivo at 10 mg/kg turned out to be 15.7% and the “Method 2: peak % reversal” value came out at 26.7%. In experiment [2] (setting [6]), the inhibition in vivo at 30 mg/kg stood at 17.1% and the “Method 2: peak % reversal” value is given as 17.7%. On mutant MGL, the equilibrium dissociation constant (Kd) turned out to be 10 nM. At MGL, the activity at 1 µM was determined as 204% and the activity at 10 µM amounted to 725%. In addition, the IC50 in experiment [3] is below 5 nM.

As for `O=C(c1ccc2c(ccn2-c2ccc(C(F)(F)F)cc2)c1)N1CC(N2CC(N3Cc4ccccc4C3=O)C2)C1` [Cpd 70, 2-[1′-({1-[4-(Trifluoromethyl)phenyl]-1H-indol-5-yl}carbonyl)-1,3′-biazetidin-3-yl]-2,3-dihydro-1H-isoindol-1-one], the half-inhibitory concentration (IC50) in experiment [1] came out at 8 nM. In experiment [2] (setting [5]), the inhibition in vivo at 10 mg/kg came out at 28.2% and the “Method 2: peak % reversal” value is given as 22.5%. In experiment [2] (setting [6]), the inhibition in vivo at 30 mg/kg came out at 4.7% and the “Method 2: peak % reversal” value is reported as 5%. Further, on mutant MGL, the affinity, expressed as Kd, was 3.5 nM. Moreover, at MGL, the activity at 1 µM is 483% and the activity at 10 µM is 736%. The IC50 in experiment [3] is below 5 nM.

For the compound `O=C(Nc1cccc(-c2ccccc2)c1)OC1CCCCC1` [URB602], the antinociceptive effect result in experiment [4] is reported as “showed an antinociceptive effect”.

In the case of `O=C(NC1CN(C2CN(C(=O)c3ccc4c(ccn4-c4ccc(C(F)(F)F)cc4)c3)C2)C1)c1nccs1` [Cpd 1, N-[1′-({1-[4-(Trifluoromethyl)phenyl]-1H-indol-5-yl}carbonyl)-1,3′-biazetidin-3-yl]-1,3-thiazole-2-carboxamide], the IC50 in experiment [1] stood at 5 nM. Besides, in experiment [2] (setting [5]), the inhibition in vivo at 10 mg/kg is -18.6% and the “Method 2: peak % reversal” value is recorded as −19.0%. In experiment [2] (setting [6]), the inhibition in vivo at 30 mg/kg was 10.3% and the “Method 2: peak % reversal” value is recorded as 7.4%. At mutant MGL, this compound gave a Kd of 6 nM. Further, at MGL, the activity at 1 µM is 370% and the activity at 10 µM came to 639%. Also, the IC50 in experiment [3] is below 5 nM.
